Patent US5110935A, “New compounds which are active against the tissue forms of malaria and method of preparation” (Ire-Celltarg, S.A., priority 1988, dated 1992)
Where two headings read alike, the source gives them in different places.

Columns and labels:
human red cells = test: Methemoglobin production in human red cells; type: cell-based; details: for Methemoglobin (% of total hemoglobin concentration): 1 hour, 37° C.
Experimental: (§7) Two important toxic effects of PQ were assessed on the two derivatives: the hemolytic effect and the conversion of hemoglobin to methemoglobin.
(§8) A+ blood is washed twice in 0.15M phosphatebuffered saline at pH 7.4 containing 20 mM glucose (GPBS), and then resuspended at a concentration of 50% in the same buffer. To this suspension, an equal volume of compound dissolved in GPBS at different concentrations (test), or of GPBS (control) is added. The final hematocrit of the suspension is 25%. After 60 minutes' incubation at 37° C., the concentration of hemoglobin and methemoglobin is determined on the total suspension, and the concentration of hemoglobin present in the supernatant after centrifugation (extracellular hemoglobin) is determined, by the cyanmethemoglobin and benzidine methods (Fairbanks V.F., 1976, in "Fundamentals of Clinical Chemistry, M.W. Tietz Editors, Saunders").

Plasmodium berghei = test: Causal prophylactic activity on OF1 mice infected with Plasmodium berghei; type: in vivo, P. berghei (ANKA), in Swiss OF1 mice; details: for ED50 / ED100 / minimal effective dose: Plasmodium berghei, 3 h; for ED50 / ED100 / minimal effective dose / CPD50, fold lower than for PQ: iv; for ED50: read-out: CPD50, causal prophylactic dose curing 50% of the infected and treated animals; for ED100: read-out: ED100, totally curative dose; for minimal effective dose: read-out: Minimal effective dose (MED); for PQ index: ratio CPD50 of PQ/CPD50 of the compound
Experimental: Primaquine and its derivatives are tested in the model of malaria in rodents employing the infection of mice with Plasmodium berghei, the sporozoites originating from infected Anopheles stephensi mosquitoes. This model, developed by Most H., Herman R. & Schoenfeld C. (1967), Am. J. Trop. med. Hyg. 16, 572-575, enables the casual prophylatic (tissue schizonticidal) activity of new therapeutic compounds to be determined.
The procedure used is that derived from Most H. & Montuori W.A. (1975), Am. J. Trop. Med. Hyg. 24, 179-189. It involves the system P. berghei (ANKA)/Anopheles stephensi/Swiss OF1 mice. The ANKA strain of P. b. berghei is maintained cyclically on Anopheles stephensi. The Swiss OF1 strain mouse is especially sensitive to P. b. berghei, which produces an invariably fatal infection.
The legs, wings and abdomen are removed from female mosquitoes (80 to 100 individuals per preparation) and the latter are then homogenized at 4° C. in MEM medium (GIBCO) containing 10% of fetal calf serum using a glass Potter. The sporozoite suspension is then purified from the mosquito debris by two successive centrifugations (2 min at 50 g and 5 min at 200 g) and the collected supernatant is stored at 4° C. After counting in a Petroff-Hausser chamber, the number of parasites is adjusted by dilution with the same cold medium to a density of 2×10^5 sporozoites/ml.
The causal prophylactic activity of the compounds, that is to say the dose enabling 50% of the infected animals to be cured (CPD50) is obtained by analysis of the logits of the response (expressed as a % LTS) as a function of the dose (mg PQ/kg).
A volume of 0.5 ml of the suspension containing 10^5 sporozoites is injected i.v. into female Swiss OF1 mice weighing 20 to 25 g, used for the therapeutic tests. 1.2. Chemotherapeutic treatments
Groups of 20 to 25 mice, infected as described above, are treated with a single intravenous injection of primaquine diphosphate (PQ) or of its two derivatives in hydrochloride form, three hours after inoculation of the sporozoites. The volume injected is adjusted according to the weight of the mouse, on the basis of 0.25 ml for a weight of 25 g. The compounds are diluted in phosphatebuffered saline (PBS), pH 7.0, and the pH is adjusted to 7.0. Infected but untreated mice (5 per group), receive the buffer alone and serve to monitor the infectivity of the sporozoites.
The experimental mice are kept for a period of 50 days. The development of the parasitemia is followed by daily examination of blood smears stained for 60 min with 5% Giemsa in Sorensen buffer at pH 7.2, from day 5 up to day 15. The number of infected animals can thus be determined.
(§1) The animals infected using P. berchei sporozoites are treated three hours later with a single i.v. injection of the compounds. This test enables the casual prophylactic activity of the compounds, that is the dose enabling 50% of the infected animals to be cured (CPD50), to be defined. The dose is always expressed as mg of PQ diphosphate per kg.
as §1, with “berghei” for “berchei”

[1] = Hemolytic effect on human red cells; type: cell-based; details: human, red cells, pH 7.4, 1 hour, 37° C., read-out: Hemolysis (% of total hemoglobin concentration); for hemolysis at 1 h, 1000 µM: 1 mM; for hemolysis at 1 h, 5000 µM: 5 mM; for hemolysis at 1 h, 2000 µM: 2 mM; for hemolysis at 1 h, 10000 µM: 10 mM
Experimental: as §7, §8

[2] = Acute toxicity in mice after a single i.v. administration; type: in vivo; details: mouse, in vivo, iv, single i.v., mg PQ diphosphate equivalent/kg; for MTD: weight loss not exceeding 5% during 5 days, read-out: Maximum tolerated dose (MTD)
Experimental: (§2) The acute toxicity in terms of a single administered dose is determined on female Swiss OF1 mice weighing 22 to 25 g. A series of dilutions of each compound is injected intravenously into groups of 10 mice (0.1 ml per 10 g of weight).
(§3) The lethal dose for 50% of mice (LD50) is determined by linear regression of the logits of the percentage of surviving animals as a function of the logarithm of the dose injected (in mg PQ diphosphate equivalent/kg) (Logit Weighted Transformation, Berkson J., 1953; J. Am. Stat. Assoc. 48, 565-599).
(§4) ^a : The products are administered i.v. to groups of 10 female Swiss
(§5) ^b : Maximum tolerated dose (MTD), defined as the highest dose
(§6) The acute toxicity in terms of a single administered dose is determined under the same conditions and according the protocol of Example 3.

female Swiss OF1 mice = test: as above; type: in vivo; details: for Fold less toxic than PQ: mice, i.v.; for LD50 / Maximum tolerated dose (MTD): single i.v., mg PQ diphosphate equivalent/kg; for Maximum tolerated dose (MTD): weight loss not exceeding 5% during 5 days
Experimental: as §2, §3, §4, §5, §6

[3] = single i.v. three hours after sporozoites, mg PQ diphosphate equivalent/kg

Q: With `COc1cc(NC(C)CCCNC(=O)CC[C@H](N)C(=O)O)c2ncccc2c1` (stereo partly drawn) [gGLU-PQ, N-(γ-L-glutamyl)primaquine] as the molecule, how does the “Methemoglobin (% of total hemoglobin concentration)” value (human red cells; 1 mM) read?
A: The value was 1.4 (0.0) %.

Q: And the “Methemoglobin (% of total hemoglobin concentration)” value (human red cells; 5 mM)?
A: Its value is 5.3 (0.0) %.

Q: What about the ED50 (Plasmodium berghei; [3]) of the same molecule?
A: Its ED50 is 8.7 mg/kg.

Q: And the ED100 (Plasmodium berghei; [3])?
A: Its ED100 is 24 mg/kg.

Q: What about the minimal effective dose (Plasmodium berghei; [3]) of the same molecule?
A: The minimal effective dose was 3.2 mg/kg.

Q: What about the “CPD50, fold lower than for PQ” value (Plasmodium berghei) of the same molecule?
A: Its value is 22 -fold.

Q: What about the “Activity compared with PQ” value (Plasmodium berghei; mouse, in vivo) of the same molecule?
A: The value was “at least twice as active as PQ”.

Q: And the PQ index (Plasmodium berghei)?
A: The PQ index was 2.15.

Q: What about the “CPD50, causal prophylactic dose curing 50% of the infected and treated animals” value (Plasmodium berghei; [3]) of the same molecule?
A: Its value is 8.7 (0.7) mg/kg.

Q: And the “ED100, totally curative dose” value (Plasmodium berghei; [3])?
A: Its value is 24.2 (9.8) mg/kg.

Q: And the hemolysis at 1 h, 1000 µM [1]?
A: Its hemolysis at 1 h, 1000 µM is 0.27%.

Q: And the hemolysis at 1 h, 5000 µM [1]?
A: The hemolysis at 1 h, 5000 µM was 0.58%.

Q: What about the LD50 [2] of the same molecule?
A: The LD50 was 169 mg/kg.

Q: What about the MTD [2] of the same molecule?
A: Its MTD is 117 mg/kg.

Q: What about the “Fold less toxic than PQ” value (female Swiss OF1 mice) of the same molecule?
A: The value was “at least 5 -fold”.

Q: What about the LD50 (female Swiss OF1 mice) of the same molecule?
A: The LD50 was 169 (9) mg/kg.

Q: And the “Maximum tolerated dose (MTD)” value (female Swiss OF1 mice)?
A: Its value is 117 (13) mg/kg.

Q: For `COc1cc(NC(C)CCCN)c2ncccc2c1` (centres unmarked) [Primaquine, 6-methoxy-8-(4-amino-1-methylbutylamino)quinoline, reference compound], which “Methemoglobin (% of total hemoglobin concentration)” value (human red cells; 1 mM) is on record?
A: Its value is 1.2 (0.5) %.

Q: What about the “Methemoglobin (% of total hemoglobin concentration)” value (human red cells; 2 mM) of the same molecule?
A: Its value is 3.4 (1.8) %.

Q: And the “Methemoglobin (% of total hemoglobin concentration)” value (human red cells; 5 mM)?
A: Its value is 5.8 (0.2) %.

Q: What about the “Methemoglobin (% of total hemoglobin concentration)” value (human red cells; 10 mM) of the same molecule?
A: Its value is 11.5 (4.2) %.

Q: And the “Methemoglobin (% of total hemoglobin concentration)” value (human red cells; 10 mM, listed as PQ)?
A: Its value is 11.5%.

Q: What about the ED50 (Plasmodium berghei) of the same molecule?
A: The ED50 was 18.8 mg/kg.

Q: What about the ED100 (Plasmodium berghei) of the same molecule?
A: Its ED100 is ~54 mg/kg.

Q: What about the minimal effective dose (Plasmodium berghei) of the same molecule?
A: The minimal effective dose was 6.5 mg/kg.

Q: And the PQ index (Plasmodium berghei)?
A: The PQ index was 1.00.

Q: And the “CPD50, causal prophylactic dose curing 50% of the infected and treated animals” value (Plasmodium berghei; [3])?
A: Its value is 18.8 (1.3) mg/kg.

Q: And the “ED100, totally curative dose” value (Plasmodium berghei; [3])?
A: Its value is “TOX”.

Q: And the hemolysis at 1 h, 1000 µM [1]?
A: Its hemolysis at 1 h, 1000 µM is 2.1%.

Q: And the hemolysis at 1 h, 2000 µM [1]?
A: The hemolysis at 1 h, 2000 µM was 2.3%.

Q: And the hemolysis at 1 h, 5000 µM [1]?
A: Its hemolysis at 1 h, 5000 µM is 2.8%.

Q: What about the hemolysis at 1 h, 10000 µM [1] of the same molecule?
A: Its hemolysis at 1 h, 10000 µM is 4.7%.

Q: What about the MTD [2] of the same molecule?
A: Its MTD is 24 mg/kg.

Q: What about the “Maximum tolerated dose (MTD)” value (female Swiss OF1 mice) of the same molecule?
A: The value was 24 (2.1) mg/kg.

Q: Which results are given for `COc1cc(NC(C)CCCNC(=O)[C@@H]2CCC(=O)N2)c2ncccc2c1` (stereo partly drawn) [pGLU-PQ, N-(α-L-pyroglutamyl)primaquine]?
A: Methemoglobin (% of total hemoglobin concentration) (human red cells; 1 mM): 0.9 (0.1) %; Methemoglobin (% of total hemoglobin concentration) (human red cells; 2 mM): 2.2 (0.9) %; Methemoglobin (% of total hemoglobin concentration) (human red cells; 5 mM): 3.9 (0.0) %; Methemoglobin (% of total hemoglobin concentration) (human red cells; 10 mM): 6.0 (0.2) %; Oxidation of hemoglobin, times less than PQ (human red cells; same concentration as PQ (10 mM)): 1.5 times less; ED50 (Plasmodium berghei; [3]): 10 mg/kg; ED100 (Plasmodium berghei; [3]): 22 mg/kg; minimal effective dose (Plasmodium berghei; [3]): 4.6 mg/kg; CPD50, fold lower than for PQ (Plasmodium berghei): 1.9 -fold; Activity relative to PQ, fold as active (Plasmodium berghei; model of malaria in mice): at least 1.9 -fold; PQ index (Plasmodium berghei): 1.87; CPD50, causal prophylactic dose curing 50% of the infected and treated animals (Plasmodium berghei; [3]): 10.0 (0.7) mg/kg; ED100, totally curative dose (Plasmodium berghei; [3]): 21.8 (5.7) mg/kg; hemolysis at 1 h, 1000 µM [1]: 0.32%; hemolysis at 1 h, 2000 µM [1]: 0.24%; hemolysis at 1 h, 5000 µM [1]: 0.44%; hemolysis at 1 h, 10000 µM [1]: 2.34%; LD50 [2]: 159 mg/kg; MTD [2]: 126 mg/kg; Fold less toxic than PQ (female Swiss OF1 mice): at least 5 -fold; LD50 (female Swiss OF1 mice): 159 (6) mg/kg; Maximum tolerated dose (MTD) (female Swiss OF1 mice): 126 (13) mg/kg
